Source: the NIST ThermoML archive (doi:10.1021/je800110r)
Numbers after ± are expanded uncertainties.

Conditions: 333.15 K, Liquid, Vibrating tube method

CCCCCCCCCC [decane]
Conditions | mass density [kg/m3]
10425 kPa | 708.9 ± 2
10455 kPa | 709 ± 2
10482 kPa | 709 ± 2
10506 kPa | 709.1 ± 2
10526 kPa | 709 ± 2
10553 kPa | 709.1 ± 2
10580 kPa | 709 ± 2
10603 kPa | 709.1 ± 2
10630 kPa | 709.2 ± 2
10657 kPa | 709 ± 2
10677 kPa | 709.3 ± 2
10704 kPa | 709.2 ± 2
10743 kPa | 709.3 ± 2
10772 kPa | 709.2 ± 2
10799 kPa | 709.4 ± 2
10828 kPa | 709.3 ± 2
10856 kPa | 709.3 ± 2
10884 kPa | 709.3 ± 2
10917 kPa | 709.4 ± 2
10950 kPa | 709.4 ± 2
10976 kPa | 709.4 ± 2
11009 kPa | 709.5 ± 2
11035 kPa | 709.6 ± 2
11073 kPa | 709.6 ± 2
11102 kPa | 709.7 ± 2
11132 kPa | 709.6 ± 2
11162 kPa | 709.7 ± 2
11188 kPa | 709.5 ± 2
11219 kPa | 709.7 ± 2
11250 kPa | 709.7 ± 2
11277 kPa | 709.8 ± 2
11304 kPa | 709.8 ± 2
11330 kPa | 709.7 ± 2
11357 kPa | 709.7 ± 2
11398 kPa | 709.8 ± 2
11428 kPa | 709.8 ± 2
11460 kPa | 709.8 ± 2
11492 kPa | 709.9 ± 2
11533 kPa | 709.9 ± 2
11566 kPa | 710 ± 2
11596 kPa | 710 ± 2
11635 kPa | 710 ± 2
11662 kPa | 710 ± 2
11697 kPa | 710.1 ± 2
11733 kPa | 710.1 ± 2
11760 kPa | 710.1 ± 2
11796 kPa | 710.2 ± 2
11827 kPa | 710.2 ± 2
11859 kPa | 710.2 ± 2
11895 kPa | 710.2 ± 2
11932 kPa | 710.4 ± 2
11974 kPa | 710.4 ± 2
11998 kPa | 710.3 ± 2
12044 kPa | 710.4 ± 2
12087 kPa | 710.5 ± 2
12115 kPa | 710.6 ± 2
12144 kPa | 710.4 ± 2
12187 kPa | 710.4 ± 2
12857 kPa | 711 ± 2
12881 kPa | 711.2 ± 2
12919 kPa | 711.2 ± 2
12952 kPa | 711.1 ± 2
12983 kPa | 711.3 ± 2
13020 kPa | 711.3 ± 2
13053 kPa | 711.2 ± 2
13085 kPa | 711.3 ± 2
13153 kPa | 711.4 ± 2
13172 kPa | 711.5 ± 2
13195 kPa | 711.4 ± 2
13213 kPa | 711.4 ± 2
13239 kPa | 711.4 ± 2
13261 kPa | 711.4 ± 2
13279 kPa | 711.4 ± 2
13300 kPa | 711.5 ± 2
13315 kPa | 711.4 ± 2
13337 kPa | 711.4 ± 2
13353 kPa | 711.6 ± 2
13598 kPa | 711.7 ± 2
13618 kPa | 711.8 ± 2
13633 kPa | 711.7 ± 2
13652 kPa | 711.8 ± 2
13667 kPa | 711.7 ± 2
13682 kPa | 711.8 ± 2
13695 kPa | 711.7 ± 2
13715 kPa | 711.7 ± 2
13728 kPa | 711.9 ± 2
13740 kPa | 711.9 ± 2
13756 kPa | 711.8 ± 2
13775 kPa | 711.9 ± 2
13790 kPa | 711.9 ± 2
13804 kPa | 712 ± 2
13817 kPa | 711.9 ± 2
13834 kPa | 712 ± 2
13854 kPa | 712 ± 2
13867 kPa | 711.9 ± 2
13887 kPa | 712 ± 2
13913 kPa | 712.1 ± 2
13929 kPa | 712.1 ± 2
13951 kPa | 712 ± 2
13965 kPa | 712.1 ± 2
13981 kPa | 712.1 ± 2
13994 kPa | 712 ± 2
14010 kPa | 712.1 ± 2
14027 kPa | 712.1 ± 2
14048 kPa | 712.3 ± 2
14066 kPa | 712.2 ± 2
14089 kPa | 712.2 ± 2
14106 kPa | 712.1 ± 2
14128 kPa | 712.2 ± 2
14140 kPa | 712.1 ± 2
14154 kPa | 712.2 ± 2
14172 kPa | 712.3 ± 2
14186 kPa | 712.3 ± 2
14205 kPa | 712.3 ± 2
14217 kPa | 712.3 ± 2
14240 kPa | 712.4 ± 2
14902 kPa | 712.8 ± 2
14923 kPa | 712.9 ± 2
14943 kPa | 713 ± 2
14961 kPa | 713.1 ± 2
15005 kPa | 712.9 ± 2
15028 kPa | 713 ± 2
15046 kPa | 712.9 ± 2
15070 kPa | 713 ± 2
15086 kPa | 713 ± 2
15104 kPa | 712.9 ± 2
15126 kPa | 713 ± 2
15147 kPa | 713 ± 2
15166 kPa | 713 ± 2
15205 kPa | 713.2 ± 2
15267 kPa | 713.2 ± 2
15394 kPa | 713.3 ± 2
15411 kPa | 713.3 ± 2
15435 kPa | 713.4 ± 2
15452 kPa | 713.4 ± 2
15479 kPa | 713.3 ± 2
15499 kPa | 713.4 ± 2
15536 kPa | 713.4 ± 2
15558 kPa | 713.4 ± 2
15603 kPa | 713.4 ± 2
15623 kPa | 713.5 ± 2
15641 kPa | 713.5 ± 2
15666 kPa | 713.6 ± 2
15680 kPa | 713.5 ± 2
15703 kPa | 713.5 ± 2
15721 kPa | 713.6 ± 2
15741 kPa | 713.6 ± 2
15761 kPa | 713.5 ± 2
15784 kPa | 713.6 ± 2
15804 kPa | 713.6 ± 2
15827 kPa | 713.6 ± 2
15859 kPa | 713.6 ± 2
15877 kPa | 713.7 ± 2
15898 kPa | 713.6 ± 2
15919 kPa | 713.8 ± 2
15945 kPa | 713.8 ± 2
15972 kPa | 713.7 ± 2
15992 kPa | 713.8 ± 2
16013 kPa | 713.7 ± 2
16043 kPa | 713.8 ± 2
16061 kPa | 713.9 ± 2
16084 kPa | 713.9 ± 2
16108 kPa | 713.9 ± 2
16129 kPa | 713.9 ± 2
16147 kPa | 713.9 ± 2
16163 kPa | 714.1 ± 2
16188 kPa | 714 ± 2
16212 kPa | 713.9 ± 2
16236 kPa | 714 ± 2
16258 kPa | 714.1 ± 2
16288 kPa | 714.1 ± 2
16313 kPa | 714 ± 2
16336 kPa | 714 ± 2
16354 kPa | 714 ± 2
16383 kPa | 714.1 ± 2
16417 kPa | 714 ± 2
16436 kPa | 714.1 ± 2
16455 kPa | 714.1 ± 2
16484 kPa | 714.1 ± 2
16506 kPa | 714.2 ± 2
16535 kPa | 714.2 ± 2
16557 kPa | 714.2 ± 2
16580 kPa | 714.2 ± 2
16599 kPa | 714.4 ± 2
16628 kPa | 714.2 ± 2
16648 kPa | 714.2 ± 2
16681 kPa | 714.3 ± 2
16700 kPa | 714.4 ± 2
16719 kPa | 714.3 ± 2
16749 kPa | 714.4 ± 2
16769 kPa | 714.4 ± 2
16806 kPa | 714.4 ± 2
16832 kPa | 714.3 ± 2
16858 kPa | 714.5 ± 2
16882 kPa | 714.4 ± 2
16913 kPa | 714.4 ± 2
16933 kPa | 714.6 ± 2
16963 kPa | 714.6 ± 2
16983 kPa | 714.5 ± 2
17007 kPa | 714.6 ± 2
17030 kPa | 714.6 ± 2
17054 kPa | 714.6 ± 2
17071 kPa | 714.7 ± 2
17105 kPa | 714.6 ± 2
17136 kPa | 714.7 ± 2
17168 kPa | 714.7 ± 2
17193 kPa | 714.8 ± 2
17217 kPa | 714.8 ± 2
17252 kPa | 714.9 ± 2
17276 kPa | 714.8 ± 2
17301 kPa | 714.8 ± 2
17329 kPa | 714.9 ± 2
17357 kPa | 714.8 ± 2
17382 kPa | 714.9 ± 2
17407 kPa | 715 ± 2
17429 kPa | 714.9 ± 2
17458 kPa | 715 ± 2
17484 kPa | 715 ± 2
17509 kPa | 714.9 ± 2
17542 kPa | 715.1 ± 2
17564 kPa | 715 ± 2
17593 kPa | 715.1 ± 2
17626 kPa | 715.1 ± 2
17656 kPa | 715.1 ± 2
17689 kPa | 715.2 ± 2
17708 kPa | 715.2 ± 2
17727 kPa | 715.2 ± 2
17754 kPa | 715.3 ± 2
17777 kPa | 715.2 ± 2
17799 kPa | 715.3 ± 2
17827 kPa | 715.3 ± 2
17857 kPa | 715.2 ± 2
17891 kPa | 715.4 ± 2
17925 kPa | 715.4 ± 2
17948 kPa | 715.3 ± 2
17975 kPa | 715.4 ± 2
18002 kPa | 715.5 ± 2
18025 kPa | 715.4 ± 2
18053 kPa | 715.5 ± 2
18089 kPa | 715.5 ± 2
18117 kPa | 715.5 ± 2
18145 kPa | 715.5 ± 2
18164 kPa | 715.6 ± 2
18188 kPa | 715.6 ± 2
18223 kPa | 715.6 ± 2
18263 kPa | 715.6 ± 2
18286 kPa | 715.6 ± 2
18322 kPa | 715.8 ± 2
18354 kPa | 715.7 ± 2
18382 kPa | 715.7 ± 2
18419 kPa | 715.7 ± 2
18443 kPa | 715.8 ± 2
18476 kPa | 715.8 ± 2
18500 kPa | 715.7 ± 2
18540 kPa | 715.9 ± 2
18566 kPa | 716 ± 2
18594 kPa | 716 ± 2
18623 kPa | 716 ± 2
18664 kPa | 716 ± 2
18744 kPa | 716 ± 2
18765 kPa | 716 ± 2
18791 kPa | 716.1 ± 2
18859 kPa | 716.1 ± 2
18889 kPa | 716.1 ± 2
18927 kPa | 716.2 ± 2
18953 kPa | 716.2 ± 2
18982 kPa | 716.3 ± 2
19017 kPa | 716.2 ± 2
19048 kPa | 716.3 ± 2
19083 kPa | 716.3 ± 2
19113 kPa | 716.3 ± 2
19140 kPa | 716.3 ± 2
19180 kPa | 716.3 ± 2
19216 kPa | 716.4 ± 2
